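Cultured in 96-well plates, cells were exposed to test compound for 48 hours across five concentrations. At the TGI there is no net growth.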
Tests used:
Assay in all cases: growth of human tumour cells (NCI), 48 h
PC-3 prostate = test system: PC-3 prostate
OVCAR-4 ovarian = test system: OVCAR-4 ovarian
SF-539 CNS = test system: SF-539 CNS
LOX IMVI melanoma = test system: LOX IMVI melanoma
CCRF-CEM leukemia = test system: CCRF-CEM leukemia
TK-10 renal = test system: TK-10 renal
OVCAR-3 ovarian = test system: OVCAR-3 ovarian
HCT-15 colon = test system: HCT-15 colon
MDA-MB-435 = test system: MDA-MB-435
NCI-H23 lung = test system: NCI-H23 lung
DU-145 prostate = test system: DU-145 prostate
MDA-MB-231 breast = test system: MDA-MB-231 breast
KM12 colon = test system: KM12 colon
MOLT-4 leukemia = test system: MOLT-4 leukemia
NCI-H460 lung = test system: NCI-H460 lung
K-562 leukemia = test system: K-562 leukemia
NCI-H522 lung = test system: NCI-H522 lung
NCI-H226 lung = test system: NCI-H226 lung
HT29 colon = test system: HT29 colon
RXF 393 renal = test system: RXF 393 renal
CAKI-1 renal = test system: CAKI-1 renal
HL-60(TB) leukemia = test system: HL-60(TB) leukemia
SNB-75 CNS = test system: SNB-75 CNS
IGROV1 ovarian = test system: IGROV1 ovarian
786-0 renal = test system: 786-0 renal
HS 578T breast = test system: HS 578T breast
SW-620 colon = test system: SW-620 colon
MCF7 breast = test system: MCF7 breast
SK-MEL-28 melanoma = test system: SK-MEL-28 melanoma
SK-MEL-5 melanoma = test system: SK-MEL-5 melanoma
T-47D breast = test system: T-47D breast
HOP-92 NSCLC = test system: HOP-92 NSCLC
M14 melanoma = test system: M14 melanoma
SR leukemia = test system: SR leukemia
A549 NSCLC = test system: A549 NSCLC
MDA-N = test system: MDA-N
UACC-62 melanoma = test system: UACC-62 melanoma
SK-OV-3 ovarian = test system: SK-OV-3 ovarian
MALME-3M melanoma = test system: MALME-3M melanoma
HCC-2998 colon = test system: HCC-2998 colon
RPMI-8226 leukemia = test system: RPMI-8226 leukemia
UACC-257 melanoma = test system: UACC-257 melanoma
COLO 205 colon = test system: COLO 205 colon
OVCAR-8 ovarian = test system: OVCAR-8 ovarian
NCI/ADR-RES ovarian = test system: NCI/ADR-RES ovarian
U251 CNS = test system: U251 CNS
A498 renal = test system: A498 renal
SF-295 CNS = test system: SF-295 CNS
ACHN renal = test system: ACHN renal
HCT-116 colon = test system: HCT-116 colon
SK-MEL-2 melanoma = test system: SK-MEL-2 melanoma
OVCAR-5 ovarian = test system: OVCAR-5 ovarian
EKVX NSCLC = test system: EKVX NSCLC

Question: Which results are given for `O/N=C(\CC(O)(C(F)(F)F)C(F)(F)F)c1cccc(Cl)c1`?
Answer: TGI (PC-3 prostate): 83.3 µM; TGI (OVCAR-4 ovarian): > 100 µM; TGI (SF-539 CNS): 85.9 µM; TGI (LOX IMVI melanoma): 62.5 µM; TGI (CCRF-CEM leukemia): 47.4 µM; TGI (TK-10 renal): 98.8 µM; TGI (OVCAR-3 ovarian): 49.4 µM; TGI (HCT-15 colon): > 100 µM; TGI (MDA-MB-435): 85.9 µM; TGI (NCI-H23 lung): 49.2 µM; TGI (DU-145 prostate): > 100 µM; TGI (MDA-MB-231 breast): 56.9 µM; TGI (KM12 colon): > 100 µM; TGI (MOLT-4 leukemia): 38.8 µM; TGI (NCI-H460 lung): > 100 µM; TGI (K-562 leukemia): > 100 µM; TGI (NCI-H522 lung): > 100 µM; TGI (NCI-H226 lung): 60.2 µM; TGI (HT29 colon): > 100 µM; TGI (RXF 393 renal): 46.5 µM; TGI (CAKI-1 renal): 68.7 µM; TGI (HL-60(TB) leukemia): 82.2 µM; TGI (SNB-75 CNS): 57.6 µM; TGI (IGROV1 ovarian): 84.4 µM; TGI (786-0 renal): > 100 µM; TGI (HS 578T breast): 53 µM; TGI (SW-620 colon): > 100 µM; TGI (MCF7 breast): > 100 µM; TGI (SK-MEL-28 melanoma): > 100 µM; TGI (SK-MEL-5 melanoma): 31.6 µM; TGI (T-47D breast): 79.7 µM; TGI (HOP-92 NSCLC): 56.6 µM; TGI (M14 melanoma): 62.7 µM; TGI (SR leukemia): > 100 µM; TGI (A549 NSCLC): > 100 µM; TGI (MDA-N): > 100 µM; TGI (UACC-62 melanoma): > 100 µM; TGI (SK-OV-3 ovarian): 58.5 µM; TGI (MALME-3M melanoma): > 100 µM; TGI (HCC-2998 colon): > 100 µM; TGI (RPMI-8226 leukemia): > 100 µM; TGI (UACC-257 melanoma): > 100 µM; TGI (COLO 205 colon): > 100 µM; TGI (OVCAR-8 ovarian): > 100 µM; TGI (NCI/ADR-RES ovarian): > 100 µM; TGI (U251 CNS): 49 µM; TGI (A498 renal): > 100 µM; TGI (SF-295 CNS): > 100 µM; TGI (ACHN renal): 65.9 µM; TGI (HCT-116 colon): > 100 µM; TGI (SK-MEL-2 melanoma): 63.5 µM; TGI (OVCAR-5 ovarian): > 100 µM; TGI (EKVX NSCLC): 67.6 µM

Reference: PubChem BioAssay (NCI)
